Numbers after ± are expanded uncertainties.
Assay: xn = mol fraction of the nth substance listed
Settings: x1 = 0.75; for surface tension liquid-gas: Ring tensiometer; for mass density: 101 kPa, Liquid, westphal balance

[Cl-].[Cl-].[Zn+2] [zinc chloride] + CCCCn1cc[n+](C)c1.[Cl-]
Settings	mass density [kg/m3]	surface tension liquid-gas [mN/m]
318.2 K	1779.1 ± 0.5	78.3 ± 0.99
323.2 K	1773.6 ± 0.5	78 ± 0.99
328.2 K	1766.9 ± 0.5	77.7 ± 0.99
333.2 K	1758 ± 0.5	77.2 ± 0.98
338.2 K	1749.2 ± 0.5	76.8 ± 0.98
343.2 K	1742.1 ± 0.5	76.4 ± 0.97

Source: the NIST ThermoML archive (doi:10.1016/j.fluid.2008.08.007)
